Legend:
Type in all cases: biochemical
MMP-1 = target: T1, MMP-1 (Homo sapiens, UniProt P03956); experiment: Inhibition of Human Collagenase (MMP-1), fluorescence assay
T1 sequence (P03956 100-469): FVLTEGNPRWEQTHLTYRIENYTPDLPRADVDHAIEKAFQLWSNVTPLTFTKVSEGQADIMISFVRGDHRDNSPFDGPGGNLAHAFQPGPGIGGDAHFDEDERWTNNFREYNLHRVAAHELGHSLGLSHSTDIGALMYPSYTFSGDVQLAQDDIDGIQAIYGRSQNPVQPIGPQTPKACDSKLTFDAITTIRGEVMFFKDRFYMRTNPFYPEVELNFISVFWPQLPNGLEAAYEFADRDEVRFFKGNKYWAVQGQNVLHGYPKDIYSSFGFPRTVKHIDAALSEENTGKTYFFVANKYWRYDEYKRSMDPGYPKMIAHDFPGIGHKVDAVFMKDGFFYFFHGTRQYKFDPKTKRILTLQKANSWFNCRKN
Experimental: Inhibition of Human Collagenase (MMP-1)
Human recombinant collagenase is activated with trypsin using the following ratio: 10 μg trypsin per 100 μg of collagenase. The trypsin and collagenase are incubated at room temperature for 10 minutes then a five fold excess (50 μg/10 μg trypsin) of soybean trypsin inhibitor is added.
10 mM stock solutions of inhibitors are made up in dimethyl sulfoxide and then diluted using the following Scheme:
Twenty-five microliters of each concentration is then added in triplicate to appropriate wells of a 96 well microfluor plate. The final concentration of inhibitor will be a 1:4 dilution after addition of enzyme and substrate. Positive controls (enzyme, no inhibitor) are set up in wells D1-D6 and blanks (no enzyme, no inhibitors) are set in wells D7-D12.
Collagenase is diluted to 400 ng/ml and 25 μl is then added to appropriate wells of the microfluor plate. Final concentration of collagenase in the assay is 100 ng/ml.
Substrate (DNP-Pro-Cha-Gly-Cys(Me)-His-Ala-Lys(NMA)-NH2) is made as a 5 mM stock in dimethyl sulfoxide and then diluted to […] in assay buffer. The assay is initiated by the addition of 50 μl substrate per well of the microfluor plate to give a final concentration of […] Fluorescence readings (360 nm excitation, 460 nm emission) were taken at time 0 and then at 20 minute intervals. The assay is conducted at room temperature with a typical assay time of 3 hours.
Fluorescence vs time is then plotted for both the blank and collagenase containing samples (data from triplicate determinations is averaged). […] The zero time is used as a blank for each compound at each concentration and these values are subtracted from the 120 minute data. Data is plotted as inhibitor concentration vs % control (inhibitor fluorescence divided by fluorescence of collagenase alone×100). IC50's are determined from the concentration of inhibitor that gives a signal that is 50% of the control.
If IC50's are reported to be <0.03 μM then the inhibitors are assayed at concentrations of 0.3 μM, 0.03 μM, […].

MMP-13 = MMP-13 (Homo sapiens, UniProt P45452); experiment: Inhibition of MMP-13, fluorescence assay
Experimental: Human recombinant MMP-13 is activated with 2 mM APMA (p-aminophenyl mercuric acetate) for 1.5 hours, at 37° C. and is diluted to […] in assay buffer (50 mM Tris, pH 7.5, 200 mM sodium chloride, 5 mM calcium chloride, 20 μM zinc chloride, 0.02% brij). Twenty-five microliters of diluted enzyme is added per well of a 96 well microfluor plate. The enzyme is then diluted in a 1:4 ratio in the assay by the addition of inhibitor and substrate to give a final concentration in the assay of […].
10 mM stock solutions of inhibitors are made up in dimethyl sulfoxide and then diluted in assay buffer as per the inhibitor dilution scheme for inhibition of human collagenase (MMP-1): Twenty-five microliters of each concentration is added in triplicate to the microfluor plate. The final concentrations in the assay are 30 μM, 3 μM, 0.3 μM, and 0.03 μM.
Substrate (Dnp-Pro-Cha-Gly-Cys(Me)-His-Ala-Lys(NMA)—NH2) is prepared as for inhibition of human collagenase (MMP-1) and […] is added to each well to give a final assay concentration of 10 μM. Fluorescence readings (360 nm excitation; 450 emission) are taken at time 0 and every 5 minutes for 1 hour.
Positive controls consist of enzyme and substrate with no inhibitor and blanks consist of substrate only.
IC50's are determined as per inhibition of human collagenase (MMP-1). If IC50's are reported to be less than 0.03 μM, inhibitors are then assayed at final concentrations of 0.3 μM, 0.03 μM, 0.003 μM and 0.0003 μM.

TACE = TACE (Homo sapiens, UniProt P78536); experiment: Recombinant TNFα converting enzyme (TACE) activity, fluorescent quenched substrate; settings: for MMP-1/TACE IC50 selectivity ratio: ratio of MMP-1 and TACE IC50 values
Chain of TACE (P78536 223-474): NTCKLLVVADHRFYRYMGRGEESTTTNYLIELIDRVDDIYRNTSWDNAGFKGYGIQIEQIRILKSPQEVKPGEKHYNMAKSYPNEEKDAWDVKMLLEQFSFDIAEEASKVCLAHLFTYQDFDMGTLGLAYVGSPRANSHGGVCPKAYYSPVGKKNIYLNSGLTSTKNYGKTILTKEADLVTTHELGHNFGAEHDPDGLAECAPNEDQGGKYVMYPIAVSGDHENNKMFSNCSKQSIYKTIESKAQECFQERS
From the text: Method for the Evaluation of Recombinant TNFα Converting Enzyme Activity.
Preparation of Recombinant TACE:
A DNA fragment coding for the signal sequence, prodomain and catalytic domain of TACE (amino acids […]), was amplified by polymerase chain reaction using a human lung cDNA library as a template. The amplified fragment was cloned into pFastBac vector. The DNA sequence of the insert was confirmed for both the strands. A bacmid prepared using pFastBac in E. coli DH10Bac was transfected into SF9 insect cells. The virus particles were amplified to P1, P2, P3 stages. The P3 virus was infected into both Sf9 and High Five insect cells and grown at 27° C. for 48 hours. The medium was collected and used for assays and further purification.
Preparation of Fluorescent Quenched Substrate:
A model peptidic TNF-α substrate (LY-LeucineAlanineGlutamineAlanineValine-ArginineSerine-SerineLysine(CMTR)-Arginine (LY=Lucifer Yellow; CMTR=5-carboxytetramethyl Rhodamine)) was prepared and the concentration estimated by absorbance at 560 nm (E560, 60,000 M-1CM-1) according to the method of Geoghegan, K F, “Improved method for converting an unmodified peptide to an energy-transfer substrate for a proteinase.” Bioconjugate Chem. 7, 385-391 (1995). This peptide encompasses the cleavage cite on pro-TNF which is cleaved in vivo by TACE.
The reaction, carried out in a 96 well plate (Dynatech), was comprised of 70 μl of buffer solution (25 mM Hepes-HCl, pH 7.5, plus 20 uM ZnCl2), 10 μl of 100 μM fluorescent quenched substrate, 10 μl of a DMSO (5%) solution of test compound, and an amount of r-TACE enzyme which will cause 50% cleavage in 60 minutes—in a total volume of 100 μl. The specificity of the enzyme cleavage at the amide bond between alanine and valine was verified by HPLC and mass spectrometry. Initial rates of cleavage were monitored by measuring the rate of increase in fluorescence at 530 nm (excitation at 409 nm) over 30 minutes. The experiment was controlled as follows: 1) for background fluorescence of substrate; 2) for fluorescence of fully cleaved substrate; 3) for fluorescence quenching or augmentation from solutions containing test compound.
The rates from the non-test compound containing “control” reactions were averaged to establish the 100% value. The rate of reaction in the presence of test compound was compared to that in the absence of compound, and tabulated as “percent of non-test compound containing control. The results were plotted as “% of control” vs. the log of compound concentration and a half-maximal point or IC50 value determined. The IC50 for the above assay is a measure of the inhibition of the TNF-α proteolytic activity of TACE. Blockage of binding of TNF-α to TACE as used herein is as described in U.S. Pat. No. 5,830,742, issued Nov. 3, 1998.

| Structure (SMILES) | IC50 (MMP-1) [nM] | IC50 (MMP-13) [nM] | IC50 (TACE) [nM] | MMP-1/TACE IC50 selectivity ratio (TACE) |
| --- | --- | --- | --- | --- |
| CC1(C)[C@H](C(=O)NO)N(S(=O)(=O)c2ccc(OCc3ccc(F)cc3)cc2)CC[S+]1[O-] (some centres unmarked) | 345 | 5 | 7.4 | 46.6 |
| CC1(C)[C@H](C(=O)NO)N(S(=O)(=O)c2ccc(OCc3ccc(F)cc3)cc2)CCS1(=O)=O | 305 | 1.4 | 7.2 | 42.4 |
| C[C@@H]1O[C@@H](CO)CN(S(=O)(=O)c2ccc(OCc3ccc(F)cc3)cc2)[C@H]1C(=O)NO | 1400 | 1 | 4.5 | 311 |
| C[C@@H]1O[C@@H](C)CN(S(=O)(=O)c2ccc(OCc3ccncc3)cc2)[C@H]1C(=O)NO | 2000 | 6 | 12 | 167 |

Continued, values first:

| IC50 (MMP-1) [nM] | IC50 (MMP-13) [nM] | IC50 (TACE) [nM] | MMP-1/TACE IC50 selectivity ratio (TACE) | Structure (SMILES) |
| --- | --- | --- | --- | --- |
| 7480 | 8 | 25 | 299 | C[C@@H]1NCCN(S(=O)(=O)c2ccc(OCc3ccccc3)cc2)[C@H]1C(=O)NO |
| 10600 | 18 | 19 | 558 | Cc1ccccc1COc1ccc(S(=O)(=O)N2CCN[C@@H](C)[C@@H]2C(=O)NO)cc1 |
| 1600 | 3 | 6.2 | 258 | CC(=O)N1CCN(S(=O)(=O)c2ccc(OCc3ccccc3C)cc2)[C@@H](C(=O)NO)[C@@H]1C |
| 3500 | 88 | 10 | 350 | Cc1ccc(C)c(COc2ccc(S(=O)(=O)N3C[C@H](C)O[C@@H](C)[C@@H]3C(=O)NO)cc2)c1 |

Reference: patent publication US20030181441A1, “TACE INHIBITORS” (priority 1998, published 2003)
